Measurements published in ChEMBL document CHEMBL4004838, “Design and synthesis of novel phenyl -1, 4-beta-carboline-hybrid molecules as potential anticancer agents” (Eur J Med Chem, 2017).
The source made the active and inactive calls. No cut-off for these calls is given here.

Legend:
Bos taurus = species on record: Bos taurus; assay: Induction of calf thymus DNA intercalation assessed as compound-DNA complex formation at 5 uM incubated for 1 hr by ethidium bromide staining based agarose gel electrophoresis relative to control
OVCAR-4 [1] = assay: Growth inhibition of human OVCAR4 cells assessed as cell growth at 1 uM incubated for 48 hrs by sulforhodamine B assay relative to control; assay type: functional; conditions: OVCAR-4, 48 h, read-out: Activity
DU-145 [2] = assay: Growth inhibition of human DU145 cells incubated for 48 hrs by sulforhodamine B assay; assay type: functional; conditions: DU-145, 48 h
EKVX = assay: Growth inhibition of human EKVX cells incubated for 48 hrs by sulforhodamine B assay; assay type: functional
NCI-H522 [3] = assay: Growth inhibition of human NCI-H522 cells assessed as cell growth at 1 uM incubated for 48 hrs by sulforhodamine B assay relative to control; assay type: functional; conditions: NCI-H522, 48 h, read-out: Activity
UACC-62 = assay: Growth inhibition of human UACC62 cells assessed as cell growth at 0.1 uM incubated for 48 hrs by sulforhodamine B assay relative to control; assay type: functional; conditions: UACC-62, 48 h, read-out: Activity
KM12 = assay: Growth inhibition of human KM12 cells assessed as cell growth at 0.01 uM incubated for 48 hrs by sulforhodamine B assay relative to control; assay type: functional; conditions: KM12, 48 h, read-out: Activity
HL-60(TB) [4] = assay: Growth inhibition of human HL-60(TB) cells assessed as cell growth at 0.01 uM incubated for 48 hrs by sulforhodamine B assay relative to control; assay type: functional; conditions: HL-60, 48 h, read-out: Activity
SF-268 = assay: Growth inhibition of human SF268 cells incubated for 48 hrs by sulforhodamine B assay; assay type: functional; conditions: SF-268, 48 h
SK-MEL-5 = assay: Growth inhibition of human SK-MEL-5 cells assessed as cell growth at 100 uM incubated for 48 hrs by sulforhodamine B assay relative to control; assay type: functional; conditions: SK-MEL-5, 48 h, read-out: Activity
NCI-H522 [5] = assay: Growth inhibition of human NCI-H522 cells incubated for 48 hrs by sulforhodamine B assay; assay type: functional; conditions: NCI-H522, 48 h
HOP-92 [6] = assay: Growth inhibition of human HOP92 cells assessed as cell growth at 0.1 uM incubated for 48 hrs by sulforhodamine B assay relative to control; assay type: functional; conditions: HOP-92, 48 h, read-out: Activity
DU-145 [7] = assay: Growth inhibition of human DU145 cells assessed as cell growth at 1 uM incubated for 48 hrs by sulforhodamine B assay relative to control; assay type: functional; conditions: DU-145, 48 h, read-out: Activity
RXF 393 = assay: Growth inhibition of human RXF393 cells incubated for 48 hrs by sulforhodamine B assay; assay type: functional; conditions: RXF 393, 48 h
CCRF-CEM [8] = assay: Growth inhibition of human CCRF-CEM cells assessed as cell growth at 0.01 uM incubated for 48 hrs by sulforhodamine B assay relative to control; assay type: functional; conditions: read-out: Activity
M14 = assay: Growth inhibition of human M14 cells incubated for 48 hrs by sulforhodamine B assay; assay type: functional; conditions: M14, 48 h
SK-OV-3 [9] = assay: Growth inhibition of human SKOV3 cells assessed as cell growth at 0.1 uM incubated for 48 hrs by sulforhodamine B assay relative to control; assay type: functional; conditions: SK-OV-3, 48 h, read-out: Activity
MOLT-4 = assay: Growth inhibition of human MOLT4 cells incubated for 48 hrs by sulforhodamine B assay; assay type: functional; conditions: MOLT-4, 48 h
CAKI-1 = assay: Growth inhibition of human Caki1 cells assessed as cell growth at 0.1 uM incubated for 48 hrs by sulforhodamine B assay relative to control; assay type: functional; conditions: CAKI-1, 48 h, read-out: Activity
SNB-75 = assay: Growth inhibition of human SNB75 cells assessed as cell growth at 0.1 uM incubated for 48 hrs by sulforhodamine B assay relative to control; assay type: functional; conditions: SNB-75, 48 h, read-out: Activity
SK-OV-3 [10] = assay: Growth inhibition of human SKOV3 cells assessed as cell growth at 1 uM incubated for 48 hrs by sulforhodamine B assay relative to control; assay type: functional; conditions: SK-OV-3, 48 h, read-out: Activity
CCRF-CEM [11] = assay: Growth inhibition of human CCRF-CEM cells assessed as cell growth at 0.1 uM incubated for 48 hrs by sulforhodamine B assay relative to control; assay type: functional; conditions: read-out: Activity
UO-31 = assay: Growth inhibition of human UO31 cells assessed as cell growth at 0.01 uM incubated for 48 hrs by sulforhodamine B assay relative to control; assay type: functional; conditions: UO-31, 48 h, read-out: Activity
HOP-92 [12] = assay: Growth inhibition of human HOP92 cells assessed as cell growth at 0.01 uM incubated for 48 hrs by sulforhodamine B assay relative to control; assay type: functional; conditions: HOP-92, 48 h, read-out: Activity
OVCAR-4 [13] = assay: Growth inhibition of human OVCAR4 cells assessed as cell growth at 100 uM incubated for 48 hrs by sulforhodamine B assay relative to control; assay type: functional; conditions: OVCAR-4, 48 h, read-out: Activity
HCC 2998 = assay: Growth inhibition of human HCC2998 cells assessed as cell growth at 0.1 uM incubated for 48 hrs by sulforhodamine B assay relative to control; assay type: functional; conditions: HCC 2998, 48 h, read-out: Activity
PC-3 = assay: Growth inhibition of human PC3 cells assessed as cell growth at 100 uM incubated for 48 hrs by sulforhodamine B assay relative to control; assay type: functional; conditions: PC-3, 48 h, read-out: Activity
OVCAR-4 [14] = assay: Growth inhibition of human OVCAR4 cells assessed as cell growth at 0.01 uM incubated for 48 hrs by sulforhodamine B assay relative to control; assay type: functional; conditions: OVCAR-4, 48 h, read-out: Activity
SF-539 = assay: Growth inhibition of human SF539 cells assessed as cell growth at 1 uM incubated for 48 hrs by sulforhodamine B assay relative to control; assay type: functional; conditions: SF-539, 48 h, read-out: Activity
HL-60(TB) [15] = assay: Growth inhibition of human HL-60(TB) cells assessed as cell growth at 100 uM incubated for 48 hrs by sulforhodamine B assay relative to control; assay type: functional; conditions: HL-60, 48 h, read-out: Activity
ACHN = assay: Growth inhibition of human ACHN cells assessed as cell growth at 100 uM incubated for 48 hrs by sulforhodamine B assay relative to control; assay type: functional; conditions: read-out: Activity
[16] = read-out: LC50 (the source's name)
[17] = read-out: pLC50 (the source's name) (converted)

**Q.** For `c1ccc2c3c([nH]c2c1)C(c1ccc(C2NCCc4c2[nH]c2ccccc42)cc1)NCC3` (racemic), which Activity (Bos taurus) is on record?
**A.** The Activity was “Active”.

**Q.** And the growth at 1 µM (OVCAR-4 [1])?
**A.** The growth at 1 µM was 59%.

**Q.** And the CC50 (DU-145 [2]; [16])?
**A.** The CC50 was 5160 nM.

**Q.** And the GI50 (DU-145 [2]; read-out: pGI50 (converted))?
**A.** Its GI50 is 741 nM.

**Q.** What about the CC50 (DU-145 [2]; [17]) of the same compound?
**A.** The CC50 was 5130 nM.

**Q.** And the TGI (DU-145 [2]; read-out: pTGI (converted))?
**A.** The TGI was 2140 nM.

**Q.** What about the GI50 (EKVX; read-out: GI50) of the same compound?
**A.** The GI50 was 1420 nM.

**Q.** And the CC50 (EKVX; [16])?
**A.** Its CC50 is 8120 nM.

**Q.** What about the TGI (EKVX; read-out: TGI) of the same compound?
**A.** Its TGI is 3390 nM.

**Q.** And the GI50 (EKVX; read-out: pGI50 (converted))?
**A.** Its GI50 is 2240 nM.

**Q.** What about the CC50 (EKVX; [17]) of the same compound?
**A.** The CC50 was 8130 nM.

**Q.** What about the TGI (EKVX; read-out: pTGI (converted)) of the same compound?
**A.** Its TGI is 3390 nM.

**Q.** What about the growth at 1 µM (NCI-H522 [3]) of the same compound?
**A.** Its growth at 1 µM is 16%.

**Q.** What about the growth at 0.1 µM (UACC-62) of the same compound?
**A.** Its growth at 0.1 µM is 99%.

**Q.** What about the growth at 0.01 µM (KM12) of the same compound?
**A.** The growth at 0.01 µM was 101%.

**Q.** What about the growth at 0.01 µM (HL-60(TB) [4]) of the same compound?
**A.** The growth at 0.01 µM was 109%.

**Q.** What about the GI50 (SF-268; read-out: GI50) of the same compound?
**A.** Its GI50 is 1120 nM.

**Q.** And the CC50 (SF-268; [16])?
**A.** Its CC50 is 5890 nM.

**Q.** And the TGI (SF-268; read-out: TGI)?
**A.** The TGI was 2570 nM.

**Q.** And the GI50 (SF-268; read-out: pGI50 (converted))?
**A.** Its GI50 is 1120 nM.

**Q.** And the CC50 (SF-268; [17])?
**A.** Its CC50 is 5890 nM.

**Q.** And the TGI (SF-268; read-out: pTGI (converted))?
**A.** The TGI was 2570 nM.

**Q.** And the growth at 100 µM (SK-MEL-5)?
**A.** The growth at 100 µM was 93%.

**Q.** What about the CC50 (NCI-H522 [5]; [16]) of the same compound?
**A.** Its CC50 is 5210 nM.

**Q.** What about the GI50 (NCI-H522 [5]; read-out: pGI50 (converted)) of the same compound?
**A.** The GI50 was 417 nM.

**Q.** What about the CC50 (NCI-H522 [5]; [17]) of the same compound?
**A.** The CC50 was 5250 nM.

**Q.** What about the TGI (NCI-H522 [5]; read-out: pTGI (converted)) of the same compound?
**A.** Its TGI is 1480 nM.

**Q.** And the growth at 0.1 µM (HOP-92 [6])?
**A.** The growth at 0.1 µM was 87%.

**Q.** What about the growth at 1 µM (DU-145 [7]) of the same compound?
**A.** The growth at 1 µM was 43%.

**Q.** What about the GI50 (RXF 393; read-out: GI50) of the same compound?
**A.** Its GI50 is 1310 nM.

**Q.** And the CC50 (RXF 393; [16])?
**A.** Its CC50 is 5450 nM.

**Q.** What about the TGI (RXF 393; read-out: TGI) of the same compound?
**A.** Its TGI is 2670 nM.

**Q.** What about the GI50 (RXF 393; read-out: pGI50 (converted)) of the same compound?
**A.** The GI50 was 1320 nM.

**Q.** And the CC50 (RXF 393; [17])?
**A.** Its CC50 is 5500 nM.

**Q.** What about the TGI (RXF 393; read-out: pTGI (converted)) of the same compound?
**A.** Its TGI is 2690 nM.

**Q.** And the growth at 0.01 µM (CCRF-CEM [8])?
**A.** The growth at 0.01 µM was 98%.

**Q.** What about the CC50 (M14; [16]) of the same compound?
**A.** The CC50 was 4650 nM.

**Q.** And the GI50 (M14; read-out: pGI50 (converted))?
**A.** Its GI50 is 407 nM.

**Q.** And the CC50 (M14; [17])?
**A.** Its CC50 is 4680 nM.

**Q.** What about the TGI (M14; read-out: pTGI (converted)) of the same compound?
**A.** The TGI was 1580 nM.

**Q.** And the growth at 0.1 µM (SK-OV-3 [9])?
**A.** The growth at 0.1 µM was 95%.

**Q.** And the CC50 (MOLT-4; [16])?
**A.** The CC50 was 8030 nM.

**Q.** And the GI50 (MOLT-4; read-out: pGI50 (converted))?
**A.** The GI50 was 380 nM.

**Q.** And the CC50 (MOLT-4; [17])?
**A.** Its CC50 is 7940 nM.

**Q.** What about the TGI (MOLT-4; read-out: pTGI (converted)) of the same compound?
**A.** Its TGI is 1550 nM.

**Q.** And the growth at 0.1 µM (CAKI-1)?
**A.** The growth at 0.1 µM was 93%.

**Q.** What about the growth at 0.1 µM (SNB-75) of the same compound?
**A.** Its growth at 0.1 µM is 72%.

**Q.** What about the growth at 1 µM (SK-OV-3 [10]) of the same compound?
**A.** Its growth at 1 µM is 90%.

**Q.** And the growth at 0.1 µM (CCRF-CEM [11])?
**A.** Its growth at 0.1 µM is 104%.

**Q.** What about the growth at 0.01 µM (UO-31) of the same compound?
**A.** The growth at 0.01 µM was 89%.

**Q.** What about the growth at 0.01 µM (HOP-92 [12]) of the same compound?
**A.** Its growth at 0.01 µM is 86%.

**Q.** And the growth at 100 µM (OVCAR-4 [13])?
**A.** Its growth at 100 µM is 93%.

**Q.** And the growth at 0.1 µM (HCC 2998)?
**A.** The growth at 0.1 µM was 81%.

**Q.** What about the growth at 100 µM (PC-3) of the same compound?
**A.** The growth at 100 µM was -93%.

**Q.** What about the growth at 0.01 µM (OVCAR-4 [14]) of the same compound?
**A.** Its growth at 0.01 µM is 88%.

**Q.** And the growth at 1 µM (SF-539)?
**A.** The growth at 1 µM was 88%.

**Q.** And the growth at 100 µM (HL-60(TB) [15])?
**A.** The growth at 100 µM was 83%.

**Q.** And the growth at 100 µM (ACHN)?
**A.** Its growth at 100 µM is -91%.
